Reference: US20220119354A1, “DIAMINO-SUBSTITUTED PYRIDINES AND PYRIMIDINES AS HERBICIDES” (FMC Corporation, priority 2019, published 2022)

How the values were obtained:
Type in all cases: in vivo
[1] = tested on: rice (Oryza sativa); assay: Test B flooded paddy test, rice; conditions: Flood, 250 g ai/ha, applied to paddy water, 2-leaf stage, visual evaluation after 13 to 15 d
How it was run: (§1)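 Growth to two leaves preceded treatment. Flooding to 3 cm above soil surface, then water-applied compound; depth kept constant. Scored visually relative to controls after 13–15 d greenhouse; 100 means full control.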

[2] = tested on: ragweed (common ragweed, Ambrosia elatior); assay: Test A preemergence, ragweed; conditions: 0 to 100 scale, 0 is no effect, 100 is complete control
How it was run: (§2)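 Plants grown in a loam soil and sand blend were treated either preemergence by directed soil spray or postemergence when 2 to 10 cm tall (one- to two-leaf stage). Formulation: non-phytotoxic solvent mixture with surfactant. Greenhouse hold ~10 d, then visual injury assessment on a 0–100 scale.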

[3] = tested on: foxtail, giant (Setaria faberii); assay: Test A preemergence, giant foxtail; conditions: 0 to 100 scale, 0 is no effect, 100 is complete control
How it was run: as §2

[4] = tested on: ryegrass, Italian (Lolium multiflorum); assay: Test A preemergence, Italian ryegrass; conditions: 0 to 100 scale, 0 is no effect, 100 is complete control
How it was run: as §2

[5] = tested on: barnyardgrass (Echinochloa crus-galli); assay: Test A preemergence, barnyardgrass; conditions: 0 to 100 scale, 0 is no effect, 100 is complete control
How it was run: as §2

[6] = tested on: ragweed (common ragweed, Ambrosia elatior); assay: Test A postemergence, ragweed; conditions: 0 to 100 scale, 0 no effect, 100 complete control
How it was run: as §2

[7] = tested on: ducksalad (Heteranthera limosa); assay: Test B flooded paddy test, ducksalad; conditions: Flood, 250 g ai/ha, applied to paddy water, 2-leaf stage, visual evaluation after 13 to 15 d
How it was run: as §1

[8] = tested on: galium (catchweed bedstraw, Galium aparine); assay: Test A postemergence, galium; conditions: 0 to 100 scale, 0 no effect, 100 complete control
How it was run: as §2

[9] = tested on: blackgrass (Alopecurus myosuroides); assay: Test A postemergence, blackgrass; conditions: 0 to 100 scale, 0 no effect, 100 complete control
How it was run: as §2

[10] = tested on: barnyardgrass (Echinochloa crus-galli); assay: Test B flooded paddy test, barnyardgrass; conditions: Flood, 250 g ai/ha, applied to paddy water, 2-leaf stage, visual evaluation after 13 to 15 d
How it was run: as §1

[11] = tested on: wheat (Triticum aestivum); assay: Test A postemergence, wheat; conditions: 0 to 100 scale, 0 no effect, 100 complete control
How it was run: as §2

[12] = tested on: foxtail, giant (Setaria faberii); assay: Test A postemergence, giant foxtail; conditions: 0 to 100 scale, 0 no effect, 100 complete control
How it was run: as §2

[13] = tested on: kochia (Kochia scoparia); assay: Test A preemergence, kochia; conditions: 0 to 100 scale, 0 is no effect, 100 is complete control
How it was run: as §2

[14] = tested on: ryegrass, Italian (Lolium multiflorum); assay: Test A postemergence, Italian ryegrass; conditions: 0 to 100 scale, 0 no effect, 100 complete control
How it was run: as §2

[15] = tested on: corn (Zea mays); assay: Test A postemergence, corn; conditions: 0 to 100 scale, 0 no effect, 100 complete control
How it was run: as §2

[16] = tested on: pigweed (Amaranthus retroflexus); assay: Test A preemergence, pigweed; conditions: 0 to 100 scale, 0 is no effect, 100 is complete control
How it was run: as §2

[17] = tested on: pigweed (Amaranthus retroflexus); assay: Test A postemergence, pigweed; conditions: 0 to 100 scale, 0 no effect, 100 complete control
How it was run: as §2

[18] = tested on: barnyardgrass (Echinochloa crus-galli); assay: Test A postemergence, barnyardgrass; conditions: 0 to 100 scale, 0 no effect, 100 complete control
How it was run: as §2

[19] = tested on: sedge, umbrella (small-flower umbrella sedge, Cyperus difformis); assay: Test B flooded paddy test, umbrella sedge; conditions: Flood, 250 g ai/ha, applied to paddy water, 2-leaf stage, visual evaluation after 13 to 15 d
How it was run: as §1

[20] = tested on: kochia (Kochia scoparia); assay: Test A postemergence, kochia; conditions: 0 to 100 scale, 0 no effect, 100 complete control
How it was run: as §2

SMILES	Plant response rating, Rice (0 to 100 scale, 0 is no effect, 100 is complete control) [1]	Ragweed plant response rating ([2]; 125 g ai/ha)	Ragweed plant response rating ([2]; 500 g ai/ha)	Foxtail, Giant plant response rating ([3]; 125 g ai/ha)	Foxtail, Giant plant response rating ([3]; 500 g ai/ha)	Ryegrass, Italian plant response rating ([4]; 125 g ai/ha)	Ryegrass, Italian plant response rating ([4]; 500 g ai/ha)	Barnyardgrass plant response rating ([5]; 125 g ai/ha)	Barnyardgrass plant response rating ([5]; 500 g ai/ha)	Plant response rating, Ragweed ([6]; 125 g ai/ha)	Plant response rating, Ragweed ([6]; 500 g ai/ha)	Plant response rating, Ducksalad (0 to 100 scale, 0 is no effect, 100 is complete control) [7]	Plant response rating, Galium ([8]; 125 g ai/ha)	Plant response rating, Galium ([8]; 500 g ai/ha)	Plant response rating, Blackgrass ([9]; 125 g ai/ha)	Plant response rating, Blackgrass ([9]; 500 g ai/ha)	Plant response rating, Barnyardgrass (0 to 100 scale, 0 is no effect, 100 is complete control) [10]	Plant response rating, Wheat ([11]; 125 g ai/ha)	Plant response rating, Wheat ([11]; 500 g ai/ha)	Plant response rating, Foxtail, Giant ([12]; 125 g ai/ha)	also measured
CC(Nc1ncc([N+](=O)[O-])c(N)n1)c1cc2ccccc2s1 (stereo not drawn) [Compound 99]	0	90	100	70	100	20	80	40	90	20	80	0	20	70	0	0	0	0	0	10	Plant response rating, Foxtail, Giant ([12]; 500 g ai/ha): 60; Kochia plant response rating ([13]; 125 g ai/ha): 0; Kochia plant response rating ([13]; 500 g ai/ha): 90; Plant response rating, Ryegrass, Italian ([14]; 125 g ai/ha): 0; Plant response rating, Ryegrass, Italian ([14]; 500 g ai/ha): 40; Plant response rating, Corn ([15]; 125 g ai/ha): 0; Plant response rating, Corn ([15]; 500 g ai/ha): 30; Pigweed plant response rating ([16]; 125 g ai/ha): 40; Pigweed plant response rating ([16]; 500 g ai/ha): 100; Plant response rating, Pigweed ([17]; 125 g ai/ha): 50; Plant response rating, Pigweed ([17]; 500 g ai/ha): 70; Plant response rating, Barnyardgrass ([18]; 125 g ai/ha): 30; Plant response rating, Barnyardgrass ([18]; 500 g ai/ha): 70; Plant response rating, Sedge, Umbrella (0 to 100 scale, 0 is no effect, 100 is complete control) [19]: 0; Plant response rating, Kochia ([20]; 125 g ai/ha): 50; Plant response rating, Kochia ([20]; 500 g ai/ha): 80
CC(Nc1ncc(C(F)(F)F)c(N)n1)c1cc2c(Cl)cccc2o1 (stereo not drawn) [Compound 100]	0	50	100	90	100	0	90	60	90	60	100	20	100	100	30	70	45	50	40	20	Plant response rating, Foxtail, Giant ([12]; 500 g ai/ha): 50; Kochia plant response rating ([13]; 125 g ai/ha): 90; Kochia plant response rating ([13]; 500 g ai/ha): 90; Plant response rating, Ryegrass, Italian ([14]; 125 g ai/ha): 40; Plant response rating, Ryegrass, Italian ([14]; 500 g ai/ha): 70; Plant response rating, Corn ([15]; 125 g ai/ha): 0; Plant response rating, Corn ([15]; 500 g ai/ha): 20; Pigweed plant response rating ([16]; 125 g ai/ha): 100; Pigweed plant response rating ([16]; 500 g ai/ha): 100; Plant response rating, Pigweed ([17]; 125 g ai/ha): 100; Plant response rating, Pigweed ([17]; 500 g ai/ha): 100; Plant response rating, Barnyardgrass ([18]; 125 g ai/ha): 30; Plant response rating, Barnyardgrass ([18]; 500 g ai/ha): 90; Plant response rating, Sedge, Umbrella (0 to 100 scale, 0 is no effect, 100 is complete control) [19]: 35; Plant response rating, Kochia ([20]; 125 g ai/ha): 60; Plant response rating, Kochia ([20]; 500 g ai/ha): 100
C[C@@H](Nc1ncc(C#N)c(N)n1)c1cc2ccccc2s1 [Compound 104]	0	60	100	20	60	30	60	0	0	20	80	0	40	80	0	20	0	0	0	0	Plant response rating, Foxtail, Giant ([12]; 500 g ai/ha): 20; Kochia plant response rating ([13]; 125 g ai/ha): 30; Kochia plant response rating ([13]; 500 g ai/ha): 90; Plant response rating, Ryegrass, Italian ([14]; 125 g ai/ha): 0; Plant response rating, Ryegrass, Italian ([14]; 500 g ai/ha): 70; Plant response rating, Corn ([15]; 125 g ai/ha): 0; Plant response rating, Corn ([15]; 500 g ai/ha): 0; Pigweed plant response rating ([16]; 125 g ai/ha): 50; Pigweed plant response rating ([16]; 500 g ai/ha): 80; Plant response rating, Pigweed ([17]; 125 g ai/ha): 80; Plant response rating, Pigweed ([17]; 500 g ai/ha): 100; Plant response rating, Barnyardgrass ([18]; 125 g ai/ha): 0; Plant response rating, Barnyardgrass ([18]; 500 g ai/ha): 20; Plant response rating, Sedge, Umbrella (0 to 100 scale, 0 is no effect, 100 is complete control) [19]: 0; Plant response rating, Kochia ([20]; 125 g ai/ha): 10; Plant response rating, Kochia ([20]; 500 g ai/ha): 60
Cc1nc(NC(C)c2cc3ccccc3s2)nc(N)c1C(F)(F)F (stereo not drawn) [Compound 105]	0	100	100	40	100	20	90	40	60	70	100	0	90	90	0	0	0	0	0	0	Plant response rating, Foxtail, Giant ([12]; 500 g ai/ha): 60; Kochia plant response rating ([13]; 125 g ai/ha): 90; Kochia plant response rating ([13]; 500 g ai/ha): 100; Plant response rating, Ryegrass, Italian ([14]; 125 g ai/ha): 100; Plant response rating, Ryegrass, Italian ([14]; 500 g ai/ha): 100; Plant response rating, Corn ([15]; 125 g ai/ha): 0; Plant response rating, Corn ([15]; 500 g ai/ha): 0; Pigweed plant response rating ([16]; 125 g ai/ha): 100; Pigweed plant response rating ([16]; 500 g ai/ha): 100; Plant response rating, Pigweed ([17]; 125 g ai/ha): 0; Plant response rating, Pigweed ([17]; 500 g ai/ha): 60; Plant response rating, Barnyardgrass ([18]; 125 g ai/ha): 30; Plant response rating, Barnyardgrass ([18]; 500 g ai/ha): 60; Plant response rating, Sedge, Umbrella (0 to 100 scale, 0 is no effect, 100 is complete control) [19]: 0; Plant response rating, Kochia ([20]; 125 g ai/ha): 80; Plant response rating, Kochia ([20]; 500 g ai/ha): 100
